Common to all, as to type: functional
The subject of experiment [1] is Human immunodeficiency virus 1. The experiment is described as follows: Effective dose achieving 50% protection of MT-4 cells against the cytopathic effect of HIV. Particulars: Human immunodeficiency virus 1, MT4; read-out: ED50 (the source's name). (In general: Protection from cytopathic effect is a common read-out in antiviral testing.)
Experiment [2] deals with MT4. The experiment is described as follows: Selectivity index of CD50 to ED50 of MT-4 cells.
Experiment [3] concerns MT4. As to the kind of experiment: Cytotoxic dose required to reduce the viability of normal uninfected MT-4 cells by 50%. Particulars: Homo sapiens, read-out: CD50 (the source's name).

The structures appear in SMILES notation.

The results in this text go back to ChEMBL document CHEMBL1124810, “Synthesis and anti-HIV evaluation of 2',3'-dideoxyribo-5-chloropyrimidine analogues: reduced toxicity of 5-chlorinated 2',3'-dideoxynucleosides” (1990).

As for `[N-]=[N+]=N[C@H]1C[C@H](n2ccc(N)nc2=O)O[C@@H]1CO`, the EC50 in experiment [1] was found to be 7.6 µM. This compound also returned a Selectivity index in the experiment on MT4 [2] of 21. In the experiment on MT4 [3], the CC50 stood at 160 µM.

As to `Nc1ccn([C@H]2C=C[C@@H](CO)O2)c(=O)n1`, in experiment [1], the EC50 was found to be 0.13 µM. Also, the Selectivity index in the experiment on MT4 [2] is given as 61. In the experiment with MT4 [3], the CC50 was 7.9 µM.

As to `Nc1nc(=O)n([C@H]2C=C[C@@H](CO)O2)cc1Cl`, the EC50 in experiment [1] turned out to be 22 µM. In the experiment with MT4 [2], this compound registered a Selectivity index of 8.4. In addition, in the experiment on MT4 [3], the CC50 came out at 185 µM.

Turning to `O=c1[nH]c(=O)n([C@H]2C=C[C@@H](CO)O2)cc1Cl`, the EC50 in experiment [1] was greater than 20 µM. Moreover, the Selectivity index in the experiment with MT4 [2] is reported as less than 2.2. The CC50 in the experiment with MT4 [3] was determined as 44 µM.

With `O=c1ccn(C2C[C@@H](F)[C@@H](CO)O2)c(=O)[nH]1` (some centres not stated), the EC50 in experiment [1] is 0.06 µM. The Selectivity index in the experiment with MT4 [2] came out at 18. For the same compound, in the experiment with MT4 [3], the CC50 was 1.1 µM.

With `O=c1ccn(C2CCC(CO)O2)c(=O)[nH]1` (configuration not stated), in experiment [1], the EC50 was 210 µM. In the experiment on MT4 [2], this compound yielded a Selectivity index greater than 3. Besides, in the experiment on MT4 [3], the CC50 was greater than 625 µM.

`Nc1nc(=O)n(C2C[C@@H](F)[C@@H](CO)O2)cc1Cl` (some centres not stated): in experiment [1], the EC50 was 26 µM. This compound returned a Selectivity index with MT4 [2] greater than 38. Moreover, in the experiment on MT4 [3], the CC50 is greater than 1000 µM.

As for `Nc1ccn(C2C[C@@H](F)[C@@H](CO)O2)c(=O)n1` (some centres not stated), in experiment [1], the EC50 is 16 µM. This compound also gave a Selectivity index in the experiment on MT4 [2] of 1.6. In the experiment with MT4 [3], the CC50 came to 26 µM.

Regarding `O=c1[nH]c(=O)n(C2CCC(CO)O2)cc1Cl` (configuration not stated), the EC50 in experiment [1] was 81 µM. Besides, the Selectivity index with MT4 [2] is greater than 6. In addition, the CC50 in the experiment on MT4 [3] was greater than 500 µM.

For the compound `[N-]=[N+]=N[C@@H]1CC(n2cc(Cl)c(=O)[nH]c2=O)O[C@@H]1CO` (some centres not stated), the EC50 in experiment [1] came out at 0.72 µM. Also, the Selectivity index with MT4 [2] came to 296. For the same compound, the CC50 in the experiment on MT4 [3] was determined as 213 µM.

Consider `Cc1cn(/C=C/C(O)C(O)CO)c(=O)[nH]c1=O` (configuration not stated), for which, in experiment [1], the EC50 is 475 µM. In the experiment on MT4 [2], this compound yielded a Selectivity index greater than 1. For the same compound, in the experiment on MT4 [3], the CC50 was greater than 500 µM.

On to `O=c1ccn(/C=C/C(O)C(O)CO)c(=O)[nH]1` (configuration not stated), for which the EC50 in experiment [1] was greater than 500 µM. For the same compound, in the experiment with MT4 [3], the CC50 was greater than 500 µM.

For `[N-]=[N+]=N[C@@H]1CC(n2cc(Cl)c(N)nc2=O)O[C@@H]1CO` (some centres not stated), in experiment [1], the EC50 stood at 9 µM. Also, the Selectivity index in the experiment on MT4 [2] was 97. Besides, in the experiment on MT4 [3], the CC50 came to 877 µM.

For the compound `Nc1nc(=O)n(C2CCC(CO)O2)cc1Cl` (configuration not stated), the EC50 in experiment [1] is greater than 500 µM. In addition, the CC50 in the experiment on MT4 [3] is greater than 500 µM.

As to `O=c1ccn([C@H]2C=C[C@@H](CO)O2)c(=O)[nH]1`, in experiment [1], the EC50 is greater than 20 µM. Besides, in the experiment on MT4 [2], the Selectivity index is recorded as less than 2. Besides, in the experiment on MT4 [3], the CC50 turned out to be 39 µM.

Take `[N-]=[N+]=N[C@H]1C[C@H](n2ccc(=O)[nH]c2=O)O[C@@H]1CO` [NAVURIDINE]: the EC50 in experiment [1] is 0.43 µM. Moreover, the Selectivity index with MT4 [2] is recorded as 90. The CC50 in the experiment on MT4 [3] turned out to be 39 µM.

Consider `O=c1[nH]c(=O)n([C@H]2C[C@H](F)[C@@H](CO)O2)cc1Cl` [RALURIDINE], for which the EC50 in experiment [1] came to 0.38 µM. The same compound came in with a Selectivity index in the experiment with MT4 [2] of 1408.

On to `Cc1cn([C@H]2C=C[C@@H](CO)O2)c(=O)[nH]c1=O` [STAVUDINE], for which the EC50 in experiment [1] is 0.05 µM. The Selectivity index in the experiment with MT4 [2] was found to be 380. Also, the CC50 with MT4 [3] came out at 19 µM.

As for `Nc1ccn([C@H]2CC[C@@H](CO)O2)c(=O)n1` [ZALCITABINE], in experiment [1], the EC50 was 0.3 µM. This compound also showed a Selectivity index with MT4 [2] of 120. Also, the CC50 with MT4 [3] is 40 µM.

As to `Cc1cn([C@H]2C[C@H](N=[N+]=[N-])[C@@H](CO)O2)c(=O)[nH]c1=O` [ZIDOVUDINE], the EC50 in experiment [1] amounted to 0.003 µM. In the experiment with MT4 [2], this compound showed a Selectivity index of 1603. Moreover, the CC50 with MT4 [3] was determined as 4.81 µM.
